Paper PMC6522510 (Nature Communications, 2019)
Where two headings read alike, the source gives them in different places.

Tests used:
Experiment in all cases: Secondary dose-response HTS, Cell Titer Glo; call rule not given here
Type in all cases: cell-based, human
U937 = conditions: secondary high-throughput screen, U937; for EC50: read-out: average effective concentration, U937
MOLM-13 = conditions: secondary high-throughput screen, MOLM-13; for EC50: read-out: average effective concentration, MOLM-13
CMS = conditions: secondary high-throughput screen, CMS; for EC50: read-out: average effective concentration, CMS
ML2 = conditions: secondary high-throughput screen, ML-2; for EC50: read-out: average effective concentration, ML-2
MV4-11 = conditions: secondary high-throughput screen, MV4-11; for EC50: read-out: average effective concentration, MV4-11
M07e = conditions: secondary high-throughput screen; for EC50: read-out: average effective concentration, M07e
CHRF288-11 = conditions: secondary high-throughput screen, CHRF288-11; for EC50: read-out: average effective concentration, CHRF288-11
CMK = conditions: secondary high-throughput screen, CMK; for EC50: read-out: average effective concentration, CMK

Row | Compound | EC50 (MOLM-13) [nM] | EC50 (U937) [nM] | EC50 (MV4-11) [nM] | average effective concentration, U937 (U937) | EC50 (MOLM-13; Homo sapiens) [nM] | average effective concentration, CMS (CMS) | average effective concentration, ML-2 (ML2) | average effective concentration, MV4-11 (MV4-11) | average effective concentration, M07e (M07e; […]) | average effective concentration, CHRF288-11 (CHRF288-11) | average effective concentration, CMK (CMK) | EC50 (ML2) [nM] | EC50 (M07e; M07e) [nM] | average effective concentration, MOLM-13 (MOLM-13) | average effective concentration, M07e (M07e; M07e) | EC50 (CMS) [nM] | EC50 (CHRF288-11) [nM] | EC50 (CMK) [nM]
1 | CN1CCc2c(c3ccccc3n2Cc2ccc(C(=O)NO)cc2)C1 [[…]] |  |  |  | Inactive | > 10000 | Inactive | Inactive | Inactive | Inactive | Inactive | Inactive |  |  |  |  |  |  | 
2 | ANACARDIC ACID |  |  |  | Inactive |  | Inactive | Inactive | Inactive |  | Inactive | Inactive |  |  | Inactive | Inactive |  |  | 
3 | EB-47 |  |  |  | Inactive |  | Inactive | Inactive | Inactive |  | Inactive | Inactive |  |  | Inactive | Inactive |  |  | 
4 | IC-87114 |  |  |  | Inactive |  | Inactive | Inactive | Inactive |  | Inactive | Inactive |  |  | Inactive | Inactive |  |  | 
5 | PU-H71 | 19 |  | 23 | Inactive |  |  |  |  |  |  |  | 82 |  |  | Inactive | 180 | 170 | 24
6 | SCR7 |  |  |  | Inactive |  | Inactive | Inactive | Inactive |  | Inactive | Inactive |  |  | Inactive | Inactive |  |  | 
7 | SN-38 | 5.6 | 37 | 240 |  |  | Inactive |  |  |  |  |  | 2.51 | 44 |  |  |  | 9.49 | 23

Further lines, with some results ahead:

Row | EC50 (MOLM-13) [nM] | EC50 (U937) [nM] | EC50 (MV4-11) [nM] | Compound | average effective concentration, U937 (U937) | EC50 (MOLM-13; Homo sapiens) [nM] | average effective concentration, CMS (CMS) | average effective concentration, ML-2 (ML2) | average effective concentration, MV4-11 (MV4-11) | average effective concentration, M07e (M07e; […]) | average effective concentration, CHRF288-11 (CHRF288-11) | average effective concentration, CMK (CMK) | EC50 (ML2) [nM] | EC50 (M07e; M07e) [nM] | average effective concentration, MOLM-13 (MOLM-13) | average effective concentration, M07e (M07e; M07e) | EC50 (CMS) [nM] | EC50 (CHRF288-11) [nM] | EC50 (CMK) [nM]
8 | 940 |  |  | (-)-NUTLIN-3 | Inactive |  | Inactive |  | Inactive |  | Inactive | Inactive | 4900 | 160 |  |  |  |  | 
9 |  | 4700 |  | AZ-20 |  |  |  |  | Inactive |  |  | Inactive | 30 | 200 | Inactive |  | 600 | 2500 | 
10 | 2500 |  | 5000 | LB 42708 | Inactive |  |  |  |  |  | Inactive | Inactive | 2300 |  |  | Inactive | 3400 |  | 
11 | 1500 | 2800 |  | MST312 |  |  |  |  | Inactive |  |  | Inactive | 3700 | 5200 |  |  | 2900 | 2000 | 
